Source: US8043823B2, “Methods of identifying agonists and antagonists of hTASR bitter taste receptors” (Deutsches Institut fuer Ernaehrungsforschung, priority 2007, dated 2011)

What was measured:
Assay type in all cases: cell-based
TAS2R47 = molecular target: T1, TAS2R47 (Homo sapiens, UniProt P59541); test: FLIPR calcium imaging of HEK-293T Gα16gust44 cells transiently expressing TAS2R47
T1 construct: expressed in transfected cells; host or cells: HEK-293T cells stably expressing Gα16gust44
T1 sequence (P59541 1-319): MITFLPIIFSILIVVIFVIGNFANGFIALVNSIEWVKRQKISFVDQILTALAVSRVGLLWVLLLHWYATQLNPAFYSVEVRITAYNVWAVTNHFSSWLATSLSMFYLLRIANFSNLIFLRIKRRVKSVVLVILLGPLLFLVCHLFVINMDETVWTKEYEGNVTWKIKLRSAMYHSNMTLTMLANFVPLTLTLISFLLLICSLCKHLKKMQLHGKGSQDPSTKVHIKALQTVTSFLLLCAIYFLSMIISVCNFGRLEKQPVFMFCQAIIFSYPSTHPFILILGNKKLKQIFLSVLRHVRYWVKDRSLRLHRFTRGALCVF
Description: (§1) Functional expression. Human TAS2R cDNA constructs were used that encoded a plasma membrane-targeting sequence of the rat somatostatin type 3 receptor at the N-terminus of the recombinant polypeptide and a herpes simplex virus glycoprotein D (HSV) epitope at its C-terminus (Bufe et al., 2002). The constructs were transiently transfected into HEK-293T cells that stably express the chimeric G-protein subunit Gα16gust44 using Lipofectamine 2000 (Invitrogen, San Diego, Calif.) in 96-well microtiter plates. Calcium imaging experiments using an automated fluorometric imaging plate reader (FLIPR) (Molecular Devices, Munich, Germany) have been performed 24-32 h later essentially as described previously (Bufe et al., 2002). Tastants (Sigma-Aldrich, Taufkirchen, Germany) were dissolved and administered in the following (in mM): 130 NaCl, 5 KCl, 10 HEPES, 2 CaCl2, and 10 mM glucose, pH7.4. Data were collected from 1-2 independent experiments performed at least in triplicate and processed with SigmaPlot (SPSS, Chicago, Ill.). For dose-response curve calculation, the peak fluorescence responses after compound addition were corrected for and normalized to background fluorescence (ΔF/F=(F−F0)/F0), and baseline noise was subtracted. […]

TAS2R46 = molecular target: T2, TAS2R46 (Homo sapiens, UniProt P59540); test: FLIPR calcium imaging of HEK-293T Gα16gust44 cells transiently expressing TAS2R46; settings: intracellular calcium response
T2 construct: expressed in transfected cells; host or cells: HEK-293T cells stably expressing Gα16gust44
T2 sequence (P59540 with tags, fused parts or gaps): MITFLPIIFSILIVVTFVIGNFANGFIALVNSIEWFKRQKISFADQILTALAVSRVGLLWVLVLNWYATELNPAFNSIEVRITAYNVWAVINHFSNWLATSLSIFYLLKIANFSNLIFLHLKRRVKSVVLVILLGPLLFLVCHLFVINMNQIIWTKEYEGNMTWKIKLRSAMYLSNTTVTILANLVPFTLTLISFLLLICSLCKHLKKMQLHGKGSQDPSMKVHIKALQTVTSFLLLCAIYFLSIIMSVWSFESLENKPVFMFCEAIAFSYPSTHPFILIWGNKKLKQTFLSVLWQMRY
Description: as §1

TAS2R50 = molecular target: T3, TAS2R50 (Homo sapiens, UniProt P59544, C203Y); test: FLIPR calcium imaging of HEK-293T Gα16gust44 cells transiently expressing TAS2R50
T3 construct: expressed in transfected cells; host or cells: HEK-293T cells stably expressing Gα16gust44
T3 sequence (P59544 1-299 C203Y): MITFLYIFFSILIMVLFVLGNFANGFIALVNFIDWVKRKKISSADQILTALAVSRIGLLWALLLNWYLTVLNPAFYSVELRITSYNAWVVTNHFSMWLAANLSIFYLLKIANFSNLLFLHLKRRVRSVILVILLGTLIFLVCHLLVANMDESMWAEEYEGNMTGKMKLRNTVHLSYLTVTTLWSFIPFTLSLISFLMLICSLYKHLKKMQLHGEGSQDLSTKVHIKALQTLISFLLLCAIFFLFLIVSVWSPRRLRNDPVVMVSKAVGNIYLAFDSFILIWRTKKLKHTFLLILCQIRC
Description: as §1

SMILES	molar range at which TAS2R47 responded (TAS2R47; Table 1, assay similar to Example 1)	concentration to which TAS2R46-expressing cells already responded (TAS2R46)	EC50 (TAS2R50; dose-response curve on TAS2R50, FIG. 2, one experiment in triplicate)	response of TAS2R50 in FLIPR calcium imaging (TAS2R50; result in words)	concentration at which TAS2R47-expressing HEK293 cells responded (TAS2R47; intracellular calcium response, 30 μM or higher)
CC12CCC(CC1=O)C2(C)C (centres unmarked) [Camphor, camphor]	0.3 mM	–	–	–	–
C=C1CC[C@@H]2[C@](C)(CO)[C@H](O)CC[C@@]2(C)[C@@H]1C/C=C1/C(=O)OC[C@H]1O [andrographolide]	–	3 µM	5.6 µM	low micromolar range	≥ 30 µM
